Values quoted from earlier work as cited in patent US20260256792A1, “TREATMENT OF CHRONIC SPONTANEOUS URTICARIA BY ADMINISTERING (R)-2-[3-[4-AMINO-3-(2-FLUORO-4-PHENOXY-PHENYL)PYRAZOLO[3,4-D]PYRIMIDIN-1-YL]PIPERIDINE-1-CARBONYL]-4-METHYL-4-[4-(OXETAN-3-YL)PIPERAZIN-1-YL]PENT-2-ENENITRILE” (priority 2023, published 2026).

Experiments:
[1] = humans, oral administration; cited from earlier work
platelet aggregation = conditions: healthy volunteers or patients with ITP; cited from earlier work
CYP3A = conditions: cited from earlier work
[2] = system: rat collagen-induced arthritis model; conditions: cited from earlier work

For `CC(C)(C=C(C#N)C(=O)N1CCC[C@@H](n2nc(-c3ccc(Oc4ccccc4)cc3F)c3c(N)ncnc32)C1)N1CCN(C2COC2)CC1` [rilzabrutinib, (R)-2-[3-[4-amino-3-(2-fluoro-4-phenoxy-phenyl)pyrazolo[3,4-d]pyrimidin-1-yl]piperidine-1-carbonyl]-4-methyl-4-[4-(oxetan-3-yl)piperazin-1-yl]pent-2-enenitrile], the absorption [1] is listed as “rapidly absorbed”, the half-life [1] is listed as 3 to 4 h and the “effect on platelet aggregation” value (platelet aggregation) is listed as “does not alter”. For the same compound, the CYP3A inhibition (CYP3A) was “mild inhibitor” and the rat collagen-induced arthritis [2] was “full disease reversal”.
